In this test the test system is Arabidopsis seedlings. Put plainly: Hormone-independent shoot regeneration of Arabidopsis seedlings after chemical induction of the transformed constructs. In kind it is in vivo, Arabidopsis thaliana. On the procedure:
For plant transformation, vector SHOOT REGENERATION was introduced into A. tumefaciens (strain C58C1.pMP90) by electroporation. Transformant A. tumefaciens were used to transform A. thaliana plants of the Col-0 ecotype by the floral dip method (Clough, 1998).
Seeds were surface sterilised by chlorin gas by the vapor sterilisation method (Lindsey, 2017). After sterilisation, the seeds were suspended in a 0.1% agarose solution, before being stratified at 4° C. in darkness for 48 hours. Subsequently, the seeds were plated on germination medium under sterile conditions. The seeds were plated on a fine nylon mesh (100 μm), which allowed for the contact with the medium without allowing seedlings to penetrate the mesh. The plates with the seedlings were sealed with surgical tape (3M, Micropore) to prevent desiccation. The plates were placed in upright position in a growth chamber (22° C., 120-150 μmol/m^2s with 16 h light/8 h dark photoperiodlight). The plates were left to grow in these circumstances for 5 days.
After 5 days of growth, the seedlings were transplanted under sterile conditions by transporting the mesh on which they were growing from the germination medium to the induction medium. The plates with the seedlings were sealed with surgical tape (3M, Micropore) to prevent desiccation. The plates were placed back in the growth chamber in upright position. The plates were left to grow in this condition for 14 days. Shoots started appearing in the second week of induction.
Plants transformed with the SHOOT REGENERATION vector (XVE-transactivated AmiRBR and AtWIND1; GVG-transactivated AtSHR, AtSCR, AtPLT1, AtPLT4, AtPLT5 and AtWOX5) were grown on medium containing 10 μM 17β-estradiol (EST: activation of XVE) and/or 10 μM dexamethasone (DEX: activation of GVG).
Plants transformed with the SHOOT REGENERATION-2 vector (XVE-transactivated AtWIND1; GVG-transactivated AtPLT1 and AtWOX5) were grown on medium containing 10 μM 17β-estradiol (EST: activation of XVE) and/or 10 μM dexamethasone (DEX: activation of GVG).

Where [1] appears, read: inducer on wild-type (non-transformed) seedlings, percentage of total number of seedlings tested.

`C[C@@H]1C[C@H]2[C@@H]3CCC4=CC(=O)C=C[C@]4(C)[C@@]3(F)[C@@H](O)C[C@]2(C)[C@@]1(O)C(=O)CO` [DEX, dexamethasone]: the green callus (inducer on wild-type (non-transformed) seedlings, percentage of the numbers with callus formation) amounted to 0%. For the setting “inducer on wild-type (non-transformed) seedlings, percentage of the numbers with green callus formation”, this molecule gave a shoot regeneration of 0%. Under setting [1], this molecule returned a callus of 0%, a green callus of 0%, a root growth arrest of 0% and a shoot regeneration of 0%.

Turning to `C[C@]12CC[C@@H]3c4ccc(O)cc4CC[C@H]3[C@@H]1CC[C@@H]2O` [estradiol, 17β-estradiol], the “root growth arrest, callus formation or shoot regeneration” value (roots of non-transformed Arabidopsis, induced with 10 μM, result in words) was “never showed any root growth arrest, callus formation or shoot regeneration”.

Values taken from patent publication US20210054393A1, “GENES FOR HORMONE-FREE PLANT REGENERATION” (priority 2018, published 2021).
